Data set [1] concerns human granulocytes. As to the kind of experiment: Intracellular calcium [Ca2+]i in granulocytes. Format: cell-based. To be noted: 10 min after addition of 10 μM ABA; basal value 50±2 nM; n=4. The protocol: Granlocytes were isolated by density gradient centrifugation from the peripheral blood of healthy donors, after informed consent. Contaminating erythrocytes were removed by hypotonic lysis. […] The increase of [cADPR]i in turn induces a progressive rise of [Ca^2+]i, from a basal value of 50±2 nM to 170±25 nM after 10 min from the addition of 10 μM ABA (n=4). […] The increase of the [Ca^2+]i induced by ABA in granulocytes is in turn responsible for activation of several functional activities typical of these cells. The functional effects induced by ABA (at concentrations ranging between 0.2 and 20 μM) in granulocytes include stimulation of the production of reactive oxygen species (ROS), measured through the cytochrome c […] (FIG. 2A), and of nitric oxide (NO), measured as accumulation of nitrite, the end-product of NO […] (FIG. 2B).

Data set [2] deals with murine macrophages RAW 264.7. As to the kind of experiment: COX-2 expression in LPS-stimulated RAW 264.7. Format: cell-based. Conditions: exogenous ABA 10-20 μM added to fluridone-treated cultures. Here is the method:
Murine macrophages from the RAW 264.7 cell line were stimulated with 10 μM ABA or with 100 ng/ml lipopolysaccharide (LPS) for 6 hours, after pre-incubation with 50 μM fluridone for 3 hours.

Data set [3] concerns murine microglia cell line N9. The data set can be described thus: Chemokinesis of murine microglia N9. Format: cell-based. Conditions: ABA 0.2-20 μM. The protocol: Assays were performed using 96-well ChemoTx system microplates with a 3-μm pore size polycarbonate filter (NeuroProbe Inc., Gaithersburg, USA). Cells (granulocytes or murine microglia) were resuspended at 10^7/ml in HBSS, PBS and 5% albumin, 39:16:1 (chemotaxis buffer, CB). In order to evaluate the chemoattractant effect of ABA, hormone concentrations ranging from 50 nM to 20 μM were added in CB in the bottom wells and 25 μl cell suspensions were placed on top of the filter. To evaluate a possible stimulatory effect of ABA on spontaneous cell movements (chemokinesis), cells were pre-incubated with or without 20 μM ABA, then washed and placed on top of the filter, in contact with CB. Plates were incubated at 37° C. for 60 min and transmigrated cells were recovered and quantified by fluorimetric assay with Cytox Green. The number of transmigrated cells was calculated by comparison of the measured fluorescence with that of a standard curve, obtained by directly placing a serial dilution of cells in the bottom wells. The results of the chemotaxis experiments are expressed as “chemotaxis index” (CI): CI=number of cells migrated towards chemoattractant/number of cells migrated towards CB
The results of the chemokinesis experiments are expressed as number of ABA pre-treated cells migrated through the filter compared to control cells (not treated with ABA).

Data set [4] has as its system human granulocytes. The data set can be described thus: Intracellular cADPR content in granulocytes (enzymatic cycling assay). Format: cell-based. To be noted: ABA 20 μM. The protocol: Panel A. GDP-ribosyl cyclase activity has been measured in granulocytes in the presence of increasing ABA concentrations, added together with the cyclase substrate NGD^+. The results are expressed as cyclase activity relative to control cells, incubated in the absence of ABA (mean ±SD from 5 determinations). Panel B. The intracellular concentration of cADPR was measured by enzymatic cycling assay (Materials and Methods) on granulcoytes incubated with 20 μM ABA for the periods of time indicated. The results are expressed as [cADPR]i relative to control cells, incubated without ABA (n=2).
The assays to determine the intracellular cADPR concentration ([cADPR]i) in granulocytes are known to the expert in the field. Granulocytes (40×10^6/ml in RPMI 1640) were incubated in the presence of 20 μM ABA and at various times 500 μl-aliquots were withdrawn and centrifuged (5,000×g for 15 s) to recover the cell pellets. Determination of the [cADPR]i was performed on perchloric acid cell extracts by an enzymatic cycling assay, as described in (Graeff, Biochem. J. 2002).

The conditions of data set [5]: cited from earlier work.
In data set [6] the test system is murine macrophages RAW 264.7. The data set can be described thus: Cell viability by Trypan blue exclusion, RAW 264.7. Format: cell-based. Conditions: RAW 264.7, fluridone 50 μM. From the text:
(§1) A similar effect (90% inhibition) is produced by fluridone also on the LPS-induced TNF-α production in both cell types (FIGS. 7 A and B). In all these cases, no toxicity of fluridone on the cells was observed, as evaluated by the ability of excluding the dye Trypan blue.

Data set [7] relates to human lymphocytes and monocytes. The data set can be described thus: Cell viability by Trypan blue exclusion, human cells. It is filed as cell-based. Conditions: fluridone 50 μM. The protocol:
Inhibition of proliferation is not due to fluridone toxicity since the percentage of viable cells (excluding the dye Trypan blue) was similar in the cultures incubated with fluridone compared to controls.
as §1

In another data set the test system is rats. To be noted: oral administration; cited from earlier work.
Data set [8] concerns human granulocytes and lymphocytes. As to the kind of experiment: ABA content in stimulated human granulocytes and lymphocytes (immunoassay for ABA). It is filed as cell-based. To be noted: fluridone 10-50 μM. The protocol: The increase of the intracellular ABA concentration induced by f-MLP in granulocytes and by PMA in lymphocytes is inhibited by the addition of fluridone at micromolar concentrations (ranging between 10 and 50 μM) during cell incubation with the pro-inflammatory stimuli.

Data on two compounds can be found in patent US7786042B2, “Fluridone as an anti-inflammatory agent” (Universita' Degli Studi Di Genova, priority 2005, dated 2010).

Entries after “also recorded” stand apart in the source; their conditions may differ.

On to `CC1=CC(=O)CC(C)(C)[C@@]1(O)/C=C/C(C)=C\C(=O)O` (racemic) [ABA, (±)-cis, trans ABA], for which the “[Ca2+]i” value in the data set with human granulocytes [1] stood at 170 ± 25 nM. Moreover, the “increase of COX-2 expression compromised by fluridone” value in data set [2] is listed as “partly restores”. Besides, in data set [3], the chemokinesis result was “increase; also recorded: ↑chemokinesis”. In the data set with human granulocytes [4], the “intracellular cADPR concentration ([cADPR]i)” value is “increase”.
As for `Cn1cc(-c2ccccc2)c(=O)c(-c2cccc(C(F)(F)F)c2)c1` [Fluridone, 1-methyl-3-phenyl-5-(α,α,α-trifluoro-m-tolyl)-4-pyridone], the “maximum permissible intake allowed in humans” value in data set [5] (from chronic toxicity in rats fed with fluridone, dose reduction of two logarithms) was 4.8 mg/kg/day. Further, the “ADI (acceptable daily intake)” value in [5] (humans) was 0.08 mg/Kg/die. For the same compound, the “toxicity on the cells (Trypan blue exclusion)” value in [6] and in [7] (human monocytes) was “no toxicity” each time. Also, the “percentage of viable cells (excluding Trypan blue) compared to controls” value in [7] (lymphocyte cultures) is “similar”. For the same compound, in the data set with rats, the LD50 was over 10000 mg/kg. In addition, the “inhibition of the increase of intracellular ABA concentration” value is 40% in [8] (granulocytes, f-MLP-induced) and 50% in [8] (lymphocytes, PMA-induced).
